Experiments:
[1] = tested on: DOHH2 DLBCL xenografts (CD20+, p53 wt); assay: In vivo antitumor efficacy against DOHH2 DLBCL xenografts (Example 1); details: s.c. DOHH-2 xenografts, female SCID beige mice; for TGI % (tumor growth inhibition compared to control): RG7388 30 mg/kg oral, obinutuzumab 10 mg/kg ip once weekly, GDC-0199 100 mg/kg oral, treatment days 13-29
Description: The in vivo antitumor efficacy of the CD20 specific antibody obinutuzumab in combination with bcl-2 inhibitor GDC-0199 and MDM2 inhibitor RG7388 was evaluated against DOHH2 DLBCL xenografts (CD20+, p53 wt). As used herein, obinutuzumab is used synonymously with RO5072759 and B-HH6-B-KV1 GE. As used herein, said bcl-2 inhibitor GDC-0199 is the following chemical compound: 4-(4-{[2-(4-chlorophenyl)-4,4-dimethylcyclohex-1-en-1-yl]methyl}piperazin-1-yl)-2-(1H-pyrrolo[2,3-b]pyridin-5-yloxy)-N-({4-[(tetrahydro-2H-pyran-4-ylmethyl)amino]-3-[(trifluoromethyl)sulfonyl]phenyl}sulfonyl)benzamide or a salt or a polymorphic form thereof. As used herein, said MDM2 inhibitor RG7388 is the following chemical compound 4-{[(2R,3S,4R,5S)-4-(4-Chloro-2-fluoro-phenyl)-3-(3-chloro-2-fluoro-phenyl)-4-cyano-5-(2,2-dimethyl-propyl)-pyrrolidine-2-carbonyl]-amino}-3-methoxy-benzoic acid or a salt or a polymorphic form thereof.
CD20 antibody obinutuzumab was provided as stock solution from Roche, Basel, Switzerland. Antibody buffer included histidine. Antibody solution was diluted appropriately in buffer from stock prior injections. MDM2(4) inhibitor was provided as SDP formulation from Roche, Basel, Switzerland and resuspended prior to use. Bcl-2 inhibitor GDC-0199 was provided by GNE, SSF, USA and formulated prior to use.
The original DOHH-2 human B cell NHL cell line (DLBCL) was established at the NCI and purchased from ATCC (Manassas, Va., USA). Expansion of tumor cells for the transplantation was done by the TAP CompacT CellBase Cell Culture Roboter according to the protocol. Tumor cell line was routinely cultured in RPMI 1640 medium, FCS 10% and L-Glutamin 2 mM at 37° C. in a water-saturated atmosphere at 5% CO2. Culture passage was performed with trypsin/EDTA 1× splitting twice/week and passage 2 used for transplantation.
Female SCID beige mice, age 6-7 weeks at arrival, maintained under specific-pathogen-free condition with daily cycles of 12 h light/12 h darkness according to committed guidelines. Experimental study protocol was reviewed and approved by local government. After arrival animals were maintained in animal facility for one week to get accustomed to new environment and for observation. Continuous health monitoring was carried out on regular basis. Diet food and autoclaved water were provided ad libitum.
Animals were controlled daily for clinical symptoms and detection of adverse effects. For monitoring throughout the experiment body weight of animals was documented.
Animal treatment started after randomisation when median tumor size was about 200 mm^3. CD20 antibody obinutuzumab was administered as single agent and in combination at 10 mg/kg ip once weekly on days 13, 21 and 27. The corresponding vehicle was administered on the same days. MDM2(4) inhibitor RG7388 oral treatment at 30 mg/kg was done as single agent and in combination on days 13-17, 20-24 and 27-29. Finally, bcl-2 inhibitor GDC-0199 was given orally at 100 mg/kg on days 13-29 as single agent and in combination.
DOHH-2 human Diffuse Large B-cell Lymphoma (DLBCL) cells (CD20+, p53 wt) were s.c. inoculated with Matrigel onto female SCID beige mice. Tumor bearing mice were randomized 13 days later to the indicated study groups and compound treatment initiated. Tumor bearing animals were treated with vehicle control, with the MDM2(4) inhibitor RO5503781 (RG7388) at 30 mg/kg, with the anti-CD20 antibody obinutuzumab at 10 mg/kg or with bcl-2 inhibitor GDC-0199 (100 mg/kg) as single agent. Furthermore one study group received the triple combination of MDM2 inhibitor RG7388, CD20 antibody obinutuzumab and bcl-2 inhibitor GDC-0199. […] A similar efficacy was noticed after treatment with the bcl-2 inhibitor GDC-0199 (60% TGI), whereas the best efficacy as single agent was achieved after treatment with the anti-CD20 antibody obinutuzumab reaching nearly tumor stasis (TGI 90%).

[2] = tested on: human Z138 mantle cell lymphoma cell line; assay: Antitumor activity of combined treatment, Z138 mantle cell lymphoma xenograft (Example 2); type: in vivo, SCID beige mice; details: for Tumor growth inhibition (TGI) on day 32: SCID beige mice, RO5072759 0.5 mg/kg i.p. q7d, GDC-0199 100 mg/kg p.o. daily, RG7388 100 then 80 mg/kg p.o. daily, day 32 after tumor cell inoculation; for Tumor-free animals on Day 125: number of animals out of 9-10 per group; for Median time to event (Days to reach TV of 1500 mm^3): time-to-event analysis until day 125; for Number of animals with reduced tumor growth or non-responder / Number of animals with tumor regrowth: until day 125
Description: Type II anti-CD20 antibody B-HH6-B-KV1 GE (=humanized B-Ly1, glycoengineered B-HH6-B-KV1, see WO 2005/044859 and WO 2007/031875) was provided as stock solution (c=9.4 mg/ml) from GlycArt, Schlieren, Switzerland, in histidine, trehalose and polysorbate 20 buffer. The antibody was diluted with PBS prior to in-vivo application. The Bcl-2 inhibitor GDC-0199 was obtained from Genentech Inc., CA, USA. MDM2(4) antagonist RG7388 (RO5503781) was provided by the Small Molecule Process Research and Development unit, Hoffmann-La Roche, Basel, Switzerland.
The human Z138 mantle cell lymphoma cell line was cultured in DMEM supplemented with 10% fetal bovine serum (PAA Laboratories, Austria) and 2 mM L-glutamine at 37° C. in a water-saturated atmosphere at 5% CO2. For in-vivo xenograft experiments the cells were co-injected with Matrigel.
Female SCID beige mice, age 4-5 weeks at arrival (purchased from Charles River, Sulzfeld, Germany), were maintained in the quarantine part of the animal facility for one week and afterwards under specific-pathogen-free condition with daily cycles of 12 h light/12 h darkness according to guidelines (GV-Solas; Felasa; TierschG). The experimental study protocol was reviewed and approved by Roche and the local government (Regierung von Oberbayern; registration no. 55.2-1-54-2531.2-26-09). Diet food (KLIBA NAFAG 3807) and water (filtered) were provided ad libitum.
Animals were monitored daily for clinical symptoms and detection of adverse effects. During the experiment the body weight of animals was checked two times a week and tumor volume was measured by caliper.
Animal treatment started at the day of randomization 18 days after tumor cell inoculation. Humanized type II anti-CD20 antibody RO5072759 B-HH6-B-KV1 GE (obinutuzumab) was administered as single agent i.p. q7d once weekly (day 18, 25, 32) for 3 weeks at a dosage of 0.5 mg/kg. The bcl-2 inhibitor GDC-0199 was given p.o. once daily (from day 18 to day 36) over 19 days at a dosage of 100 mg/kg. The MDM2 antagonist RG7388 (RO5503781) was given p.o. once daily over 5 days at a dosage of 100 mg/kg (active compound) from day 18 to day 22 and was administered over 12 days at a dosage of 80 mg/kg (active compound) from day 25 to day 36. There was no treatment on day 23 and 24. In the combination groups, RO5072759 B-HH6-B-KV1 GE, MDM2(4) and GDC-0199 were administered at the same dosages and on the same days. The corresponding vehicle was administered on the same days.
To elucidate the long term effects of the various treatments a time-to-event analysis was performed until day 125 after tumor cell inoculation.

Molecule	npTCR [1]	TGI % (tumor growth inhibition compared to control) [1] [%]	Tumor growth inhibition (TGI) on day 32 [2] [%]	Tumor-free animals on Day 125 [2]	Median time to event (Days to reach TV of 1500 mm^3) [2] [days]	Number of animals with reduced tumor growth or non-responder [2]	Number of animals with tumor regrowth [2]
CC1(C)CCC(CN2CCN(c3ccc(C(=O)NS(=O)(=O)c4ccc(NCC5CCOCC5)c([N+](=O)[O-])c4)c(Oc4cnc5[nH]ccc5c4)c3)CC2)=C(c2ccc(Cl)cc2)C1 [GDC-0199, 4-(4-{[2-(4-chlorophenyl)-4,4-dimethylcyclohex-1-en-1-yl]methyl}piperazin-1-yl)-N-({3-nitro-4-[(tetrahydro-2H-pyran-4-ylmethyl)amino]phenyl}sulfonyl)-2-(1H-pyrrolo[2,3-b]pyridin-5-yloxy)benzamide, reference compound]	0.43	60	53	0	29	10	0
COc1cc(C(=O)O)ccc1NC(=O)[C@@H]1N[C@@H](CC(C)(C)C)[C@](C#N)(c2ccc(Cl)cc2F)[C@H]1c1cccc(Cl)c1F [RG7388, 4-{[(2R,3S,4R,5S)-4-(4-Chloro-2-fluoro-phenyl)-3-(3-chloro-2-fluoro-phenyl)-4-cyano-5-(2,2-dimethyl-propyl)-pyrrolidine-2-carbonyl]-amino}-3-methoxy-benzoic acid]	0.48	56	67	0	30	9	0
obinutuzumab: afucosylated glyco-engineered humanized B-Ly1 type II anti-CD20 IgG1 antibody, VH SEQ ID NO:7 (B-HH6), VL SEQ ID NO:20 (B-KV1)	0.17	90	47	2	28	8	0

From US20160347852A1, “Combination therapy of an anti-CD20 antibody with a Bcl-2 inhibitor and a MDM2 inhibitor” (Hoffmann-La Roche Inc., priority 2015, published 2016)
